In publication PMC11371747, “The role of l-leucovorin uptake and metabolism in the modulation of 5-fluorouracil efficacy and antifolate toxicity” (Frontiers in Pharmacology, 2024):
Like-named read-outs stand apart in the source and are kept apart here. Each block holds one molecule with its values, some of them ahead of it.

Assays:
[1] = tested on: colon cancer cell lines; assay: Growth inhibition, SRB assay, panel of colon cancer cell lines; type: cell-based, human; details: Homo sapiens, read-out: IC50 range over colon cancer cell lines
Procedure: (§1) Briefly, cells were seeded in triplicate in 96-well plates at their pre-established optimal density (CHO cells: 2,500 cells/100 μL; WiDr and HT29: 3,500 cells/100 μL; WiDr-LF/LV, LS174T: 5,000 cells/100 μL; CaCo2, CaCo2-LF/LV, H292, H28 and MSTO-211H: 6,000 cells/100 μL; H460, SW948 and SW1398: 7,000 cells/100 μL) and were allowed to attach for ∼ 24 h at 37°C in 5% CO2 and 100% humidified incubator. Thereafter, 100 μL of drug dilution without LV, or with 5 μM l-LV/5 μM d-LV/10 μM dL-LV (or any LV alone) were added. Cells were allowed to grow for 72 h at 37°C in 5% CO2 and 100% humidity. The t = 0 h control plate consisted of cells plated on the same day as the other cells, but after 24 h at 37°C in 5% CO2 and 100% humidity, only 100 μL medium was added and the cells were fixed immediately with 50% trichloroacetic acid (TCA) in milliQ water (25 μL per well) and put at 4°C for at least 1 h. Plates were washed five times with water and dried. Cells were stained with the SRB protein dye (0.4% (w/v) in 1% acetic acid. Excess dye was washed away four times with 1% acetic acid and plates were dried again. 200 μL of Tris (10 mM Tris (hydroxymethyl)-aminomethane in MQ) was added and optical density (OD) was read at 492 nm after mixing 2–3 min on a plate shaker.

[2] = tested on: SW948 cells; assay: Growth inhibition, SRB assay, SW948; type: cell-based; details: Homo sapiens, SW948, 72 h, read-out: IC50, 72 h drug exposure
Procedure: as §1

[3] = tested on: WiDr cells; assay: Growth inhibition, SRB assay, WiDr; type: cell-based; details: Homo sapiens, 72 h, read-out: IC50, 72 h drug exposure
Procedure: as §1

[4] = tested on: CaCo2 cells; assay: Growth inhibition, SRB assay, CaCo2; type: cell-based; details: Homo sapiens, Caco-2, 72 h, read-out: IC50, 72 h drug exposure
Procedure: as §1

[5] = tested on: CaCo2 LF/LV cells; assay: Growth inhibition, SRB assay, CaCo2 LF/LV; type: cell-based; details: Homo sapiens, Caco-2, 72 h, read-out: IC50, 72 h drug exposure
Procedure: as §1

[6] = tested on: WiDr LF/LV cells; assay: Growth inhibition, SRB assay, WiDr LF/LV; type: cell-based, human; details: Homo sapiens, WiDr, 72 h, WiDr LF/LV, SRB, read-out: IC50, 72 h drug exposure
Procedure: as §1

[7] = tested on: SW1398 cells; assay: Growth inhibition, SRB assay, SW1398; type: cell-based; details: Homo sapiens, 72 h, read-out: IC50, 72 h drug exposure
Procedure: as §1

[8] = tested on: LS174T cells; assay: Growth inhibition, SRB assay, LS174T; type: cell-based; details: Homo sapiens, 72 h, read-out: IC50, 72 h drug exposure
Procedure: as §1

[9] = tested on: HT29 cells; assay: Growth inhibition, SRB assay, HT29; type: cell-based; details: Homo sapiens, HT-29, 72 h, read-out: IC50, 72 h drug exposure
Procedure: as §1

[10] = biological target: T1, thymidylate synthase (TS) (Homo sapiens, UniProt P04818); assay: TS in situ inhibition assay (TSIA) in colon cancer cells; type: cell-based
T1 construct: The principle of this assay is the measurement of TS enzymatic activity in intact cells; endogenous in cells; host or cells: colon cancer cell lines (WiDr, WiDr-LF, SW1398, LS174T and others)
T1 sequence (P04818 2-313 limits assumed): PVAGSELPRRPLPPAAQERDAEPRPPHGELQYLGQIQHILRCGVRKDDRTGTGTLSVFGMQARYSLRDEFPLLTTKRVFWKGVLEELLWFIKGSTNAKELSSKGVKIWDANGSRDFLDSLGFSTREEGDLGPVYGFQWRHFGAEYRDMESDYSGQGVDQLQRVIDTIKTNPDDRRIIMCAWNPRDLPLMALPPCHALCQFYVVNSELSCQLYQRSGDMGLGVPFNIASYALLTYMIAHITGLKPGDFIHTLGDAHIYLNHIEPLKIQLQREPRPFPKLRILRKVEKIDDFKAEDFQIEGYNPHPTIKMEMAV
Description: The principle of this assay is the measurement of TS enzymatic activity in intact cells. Intact cells will readily internalize radioactively labelled [5-^3H]-deoxycytidine, which will be rapidly converted by deoxycytidine kinase (dCK) to [5-^3H]-dCMP and subsequently deaminated to [5-^3H]-dUMP, which will then serve as a substrate in the TS catalysed reaction to dTMP and ^3H2O; the quantity of ^3H2O formed over time is a measure of intracellular TS activity. […] This is because dCK has a higher, cell cycle independent activity than thymidine kinase 1, which is a cell cycle dependent enzyme. For this purpose, cancer cells were cultured in six wells plates at 2.5 × 10^5 cells/2 mL/well for 24 h. Thereafter, cells were exposed to drugs with or without the LV formulations at the indicated concentrations for 4 h. 2 h before the end of the incubation period [5-^3H]-2′-deoxycytidine (final concentration 1 µM) was added to the cells. […] In most cell lines we quantified dCK activity and dCK mRNA levels.

[11] = tested on: H460 cells; assay: Growth inhibition, SRB assay, H460 (NSCLC); type: cell-based, human; details: H460, SRB, read-out: IC50, 72 h drug exposure
Procedure: as §1

[12] = tested on: NSCLC and MPM cell lines; assay: Growth inhibition, SRB assay, NSCLC and MPM cell lines; type: cell-based, human; details: 5 µM l-LV, H28, MSTO-211H, H460, H292
Procedure: as §1

[13] = tested on: AA8 cells; assay: Growth inhibition, SRB assay, AA8 (parental CHO); type: cell-based, Chinese hamster; details: for IC50: AA8 parental CHO
Procedure: as §1

[14] = tested on: H28 cells; assay: Growth inhibition, SRB assay, H28 (MPM); type: cell-based, human; details: H28, SRB, read-out: IC50, 72 h drug exposure
Procedure: as §1

[15] = tested on: CHO/C5-PCFT cells; assay: Growth inhibition, SRB assay, CHO/C5-PCFT (PCFT-transfected); type: cell-based, Chinese hamster
Procedure: as §1

[16] = tested on: CHO/C5-hRFC cells; assay: Growth inhibition, SRB assay, CHO/C5-hRFC (human RFC transfected); type: cell-based, Chinese hamster; details: CHO/C5-hRFC
Procedure: as §1

[17] = tested on: MSTO-211H cells; assay: Growth inhibition, SRB assay, MSTO-211H (MPM); type: cell-based, human; details: SRB, read-out: IC50, 72 h drug exposure
Procedure: as §1

[18] = tested on: CHO/C5 cells; assay: Growth inhibition, SRB assay, CHO/C5 (RFC-deficient); type: cell-based, Chinese hamster
Procedure: as §1

[19] = tested on: CHO/C5-MOCK cells; assay: Growth inhibition, SRB assay, CHO/C5-MOCK (empty vector); type: cell-based, Chinese hamster
Procedure: as §1

[20] = tested on: H292 cells; assay: Growth inhibition, SRB assay, H292 (NSCLC); type: cell-based, human; details: H292, SRB, read-out: IC50, 72 h drug exposure
Procedure: as §1

[21] = Cricetulus griseus, antifolate alone

Structure (SMILES): O=c1[nH]cc(F)c(=O)[nH]1 [5-FU, 5-fluorouracil]
IC50 ([1]; 5-FU + 5 µM d-LV): 2 to 10.5 µM | IC50 ([1]; 5-FU + 5 µM l-LV): 1.3 to 8.1 µM | IC50 ([1]; 5-FU + 10 µM dl-LV): 1.4 to 8.9 µM | IC50 ([1]; 5-FU only): 1.8 to 10.5 µM | IC50 ([2]; 5-FU + 5 µM d-LV): 3.85 ± 0.66 µM | IC50 ([2]; 5-FU + 5 µM l-LV): 2.63 ± 0.4 µM | IC50 ([2]; 5-FU + 10 µM dl-LV): 2.78 ± 0.29 µM | IC50 ([2]; 5-FU alone): 3.65 ± 0.41 µM | IC50 ([3]; 5-FU + 5 µM d-LV): 4.21 ± 0.57 µM | IC50 ([3]; 5-FU + 5 µM l-LV): 1.95 ± 0.2 µM | IC50 ([3]; 5-FU + 10 µM dl-LV): 2.91 ± 1.06 µM | IC50 ([3]; 5-FU alone): 4.56 ± 0.34 µM | IC50 ([4]; 5-FU + 5 µM d-LV): 3.04 ± 0.66 µM | IC50 ([4]; 5-FU + 5 µM l-LV): 3.04 ± 0.39 µM | IC50 ([4]; 5-FU + 10 µM dl-LV): 3.63 ± 0.38 µM | IC50 ([4]; 5-FU alone): 3.08 ± 0.27 µM | IC50 ([5]; 5-FU + 5 µM d-LV): 1.96 ± 0.62 µM | IC50 ([5]; 5-FU + 5 µM l-LV): 1.78 ± 0.18 µM | IC50 ([5]; 5-FU + 10 µM dl-LV): 1.78 ± 0.39 µM | IC50 ([5]; 5-FU alone): 2.05 ± 0.28 µM | IC50 ([6]; 5-FU + 5 µM d-LV): 2.78 ± 0.34 µM | IC50 ([6]; 5-FU + 5 µM l-LV): 1.77 ± 0.15 µM | IC50 ([6]; 5-FU + 10 µM dl-LV): 1.75 ± 0.08 µM | IC50 ([6]; 5-FU alone): 1.83 ± 0.18 µM | IC50 ([7]; 5-FU + 5 µM d-LV): 2.4 ± 0.68 µM | IC50 ([7]; 5-FU + 5 µM l-LV): 1.28 ± 0.18 µM | IC50 ([7]; 5-FU + 10 µM dl-LV): 1.44 ± 0.37 µM | IC50 ([7]; 5-FU alone): 2.99 ± 0.47 µM | IC50 ([8]; 5-FU + 5 µM d-LV): 10.5 ± 0.8 µM | IC50 ([8]; 5-FU + 5 µM l-LV): 8.11 ± 0.71 µM | IC50 ([8]; 5-FU + 10 µM dl-LV): 8.95 ± 0.72 µM | IC50 ([8]; 5-FU alone): 10.5 ± 0.82 µM | IC50 ([9]; 5-FU + 5 µM d-LV): 7.5 ± 0.5 µM | IC50 ([9]; 5-FU + 5 µM l-LV): 3.3 ± 0.2 µM | IC50 ([9]; 5-FU + 10 µM dl-LV): 3.8 ± 0.3 µM | IC50 ([9]; 5-FU alone): 7.9 ± 2.65 µM | IC50 ([10]; SW1398, 4 h, 5FU alone): 4.14 ± 0.24 µM | IC50 ([10]; WiDr, 4 h, 5FU alone): 3.76 ± 0.35 µM | IC50 ([10]; WiDr-LF, 4 h, 5FU alone): 3.67 ± 0.33 µM

IC50 ([11]; antifolate + 5 µM l-LV): 52.7 µM | IC50 ([11]; Homo sapiens, NCI-H460, 72 h, antifolate alone): 0.302 ± 0.012 µM | IC50 ([10]; WiDr, 4 h, antifolate alone): 0.175 ± 0.075 µM | IC50 ([20]; antifolate + 5 µM l-LV): 17 µM | IC50 ([20]; Homo sapiens, NCI-H292, 72 h, antifolate alone): 0.103 ± 0.012 µM
Structure (SMILES): Nc1nc2[nH]cc(CCc3ccc(C(=O)N[C@@H](CCC(=O)O)C(=O)O)cc3)c2c(=O)[nH]1 [PMX, pemetrexed]
l-LV-mediated increase in the IC50 values, range over cell lines [12]: 144-211 fold | Protection by l-LV, increase of the IC50 value ([13]; AA8 cells, 5 µM l-LV): 94 fold | IC50 ([13]; antifolate + 5 µM l-LV): 3.5 µM | IC50 [13, 21]: 0.037 µM | IC50 ([14]; antifolate + 5 µM l-LV): 34.3 µM | IC50 ([14]; Homo sapiens, NCI-H28, 72 h, antifolate alone): 0.28 ± 0.048 µM | IC50 [15, 21]: 10.6 µM | IC50 ([15]; antifolate + 5 µM l-LV): 49.2 µM | IC50 ([16]; antifolate + 5 µM l-LV): 29.3 µM | IC50 [16, 21]: 0.046 µM | IC50 ([17]; Homo sapiens, 72 h, antifolate alone): 0.143 ± 0.014 µM | IC50 ([17]; antifolate + 5 µM l-LV): 21 µM | IC50 [18, 21]: 3.1 µM | IC50 ([18]; antifolate + 5 µM l-LV): 59.6 µM | IC50 [19, 21]: 42 µM | IC50 ([19]; antifolate + 5 µM l-LV): > 100 µM
